This experiment is filed under the species Rattus norvegicus. Nature of the experiment: GABA-B agonistic activity in rat anococcygeus. The class given is functional.

One may read the EC50 as the midpoint of the concentration-response curve. Low values mean an effect from little substance, high ones a need for much substance.

The structures appear in SMILES notation.

Regarding `NCC(c1ccc(Cl)cc1)C(F)(F)P(=O)(O)O` (stereo unspecified), the 50% effective concentration (EC50) was about 300 µM.

The values above are taken from ChEMBL document CHEMBL1125949, “Synthesis and biological evaluation of 3-amino-2-(4-chlorophenyl)1,1-difluoropropyl phosphonic acid” (Bioorg Med Chem Lett, 1991).
